How the values were obtained:
[1] = test system: Histamine Induced Bronchoconstriction; assay: Histamine Induced Bronchoconstriction in the Anaesthetised Guinea Pig; type: in vivo, guinea pig (Dunkin-Hartley); conditions: p.o.; for ED50: Cavia porcellus, po, 1 h, histamine infusion 10 μgkg^-1 min^-1 one hour after dosing
Source text: Histamine Induced Bronchoconstriction in the Anaesthetised Guinea Pig
(§1) Following oral administration of test compound or vehicle by oral gavage, male Dunkin-Hartley guinea pigs (350-400 g) were anaesthetised by intraperitoneal injection of 60 mgkg^-1 sodium pentobarbitone (Sagatal, May & Baker UK). Through a midline incision of the neck, the trachea was cannulated and connected to a small animal respirator (Harvard, UK). Animals were artificially ventilated at a rate of 30 breaths per minute with a tidal volume of 8-10 ml to give a resting tracheal inflation pressure of 15 mmHg as measured by a physiological pressure transducer (type P23XL, Spectramed USA) connected to a side arm of the respiratory circuit.
A jugular vein was cannulated for the administration of propranolol and for the infusion of histamine. A carotid artery was cannulated for the measurement of arterial blood pressure via a physiological pressure transducer (type P23XL, Spectramed USA). Blood pressure and tracheal inflation pressure were recorded on a thermal array chart recorder (type TA4000, Gould Electronics UK).
Following a suitable equilibration period, propranolol (1 mgkg^-1 i.v. & 3 mgkg^-1 s.c. Sigma Chemical Co. UK) was administered to inhibit any resulting catecholamine release following histamine administration.
Histamine infusion (10 μgkg^-1 min^-1 at a rate of 10 mlhr^-1 using a perfusion pump type Perfuser securer FT, B. Braun Germany) was started at the one hour time point following oral administration of the test compound or vehicle. Changes in tracheal inflation pressure and blood pressure of drug treated animals were compared with changes from vehicle treated animals and ED50 values determined. One dose of test compound was investigated per animal.

[2] = biological target: T1, histamine-1 receptors on Hela-S3 cells (Homo sapiens, UniProt P35367); assay: Inhibition of [^3 H]-Pyrilamine Binding to Histamine-1 Receptors on Hela-S3 Cells; conditions: 0.5 h; 1 μM test compound; [^3 H]-pyrilamine remaining specifically bound; 37° C., 30 minutes; read-out: % Specific Binding at 1 μM
T1 construct: histamine-1 receptors on Hela-S3 cells (American Type Culture Collection); host or cells: HeLa-S3 cells (intact cell suspension)
Description: Inhibition of [^3 H]-Pyrilamine Binding to Histamine-1 Receptors on Hela-S3 Cells
The inhibition of [^3 H]-pyrilamine binding to histamine-1 receptors on Hela-S3 cells (American Type Culture Collection) was determined by isotopic labelling and filtration techniques. A suspension of the cells in buffer (25 ml, 0.5% Bovine Serum Albumin, 0.1% sodium azide, phosphate buffered saline (PBS)) was centrifuged at 1000 rpm for 5 minutes in a JOUAN CR 422 centrifuge, collected, resuspended in buffer (25 ml) and spun again. The cells were counted using a haemocytometer and resuspended in buffer to provide a final concentration of 4.5×10^6 cells ml^-1. A portion of the Hela-S3 cell suspension (1 ml) was added to each assay tube containing 25 μl of vehicle (50% DMSO/buffer) or 25 μl of test compound solution (dissolved in DMSO and diluted with sufficient PBS to give a final test concentration of 1 μM) and 25 μl of [^3 H]-pyrilamine (supplied by Amersham International and diluted with PBS to 3 nM). The tubes were mixed, incubated at 37° C. for 30 minutes and then spun at 4° C. at 2000 rpm for 2 minutes. The supernatant was removed and the cells resuspended in buffer (repeated ×2). The cells were suspended in 300 μl of a 2:1 solution of 1M sodium hydroxide and 1% sodium dodecyl sulphate. The tubes were left ovemight before the contents were tranferred to a scintillation vial, treated with 10 ml, OPTIPHASE MP scintillation fluid (OPTIPHASE MP is a trade mark) and the radioactivity counted in a scintillation counter. Non-displacable binding (NDB) was determined using Astemizole (5×10^-5 M) in place of test compounds. Defining the counts for total binding from the vehicle control sample as "TB" and the counts for total binding with antogonist as "TBA" the percentage specific binding (% SB) can be determined from the following equation.

[3] = test system: PAF-Induced Platelet Aggregation; assay: Inhibition of PAF-Induced Platelet Aggregation; type: cell-based, rabbit (New Zealand White); conditions: Oryctolagus cuniculus; rabbit platelet-rich plasma, PAF 100 ngml^-1
Description: Inhibition of PAF-Induced Platelet Aggregation
Male New Zealand White rabbits (3.0-3.5 kg) were anaesthetised by intravenous administration of sodium pentobarbitone, 18 mg.ml^-1, via a marginal ear vein. The trachea was exposed and connected to a respiratory pump (Harvard UK) to provide artificial ventilation. A carotid artery was exposed and cannulated and the animal was exsanguinated. Whole blood was collected in a syringe containing tri-sodium citrate (3.8% w/v) to a ratio of 1 part citrate:9 parts blood.
Collected blood was centrifuged at 180×g for 15 minutes at room temperature (21° C.) to prepare platelet-rich plasma (PRP). The remaining blood was then centrifuged at 1800×g for 10 minutes at room temperature to obtain platelet poor plasma (PPP).
Platelet count of the PRP was measured using a Technicon H1 blood cell differential analyser (Bayer Diagnostics UK) and adjusted with PPP to obtain a final platelet count of 500,000 platelets per μl of plasma, this being the normal physiological platelet count for rabbits. Corrected PRP was left to equilibrate at room temperature for 30 minutes before use.
Aggregation studies were carried out using a 4-channel aggregometer (PAP-4C, BioData USA) as follows: 400 μl aliquots of PRP were placed in siliconised cuvettes and incubated to 37° C. for 1 to 2 minutes in the heating block of the aggregometer. Baseline (100% aggregation) was set up using PPP (500 μl in a siliconised cuvette). The PRP was placed into a measuring well of the aggregometer, and a stirrer bar was added. The sample was stirred at 1000 rpm. The machine was activated to set the 0% aggregation level. Test compound or vehicle (50 μl) was added to the PRP, where any effects on the baseline was noted. PAF (100 ngml^-1 as 50 μl aliqout) was added to the PRP 3 minutes after test compound or vehicle. Aggregation was measured for a further 4 minutes after PAF addition and the maximum aggregation over the 4 minutes was recorded.
The investigation of different concentrations of test compound was performed in triplicate. Data were expressed as […] of the sample and test compound data were compared to vehicle data to obtain % inhibition of the PAF-induced aggregation from which IC50 values could be determined.
PAF was made up in sterile saline (NaCl 0.9% w/v) containing BSA (0.25% w/v) from an initial stock solution (10 mgml^-1 in EtOH). Test compounds were made up as 1×10^-3 M stock solutions in sterile saline containing molar equivalents of 1N HCl (v/v) or in DMSO.
In the results which follow, a comparison compound A was included. Compound A was prepared as described in EP-A-260613 (G. D. Searle), but is not part of the present invention. As appears from the results of the comparison, compounds of this invention, all of which incorporate a fragment capable of H1 antagonist activity, are observed to show improved PAF antagonist activity over compound A.

[4] = test system: PAF Induced Bronoconstriction; assay: PAF Induced Bronoconstriction in the Anaesthetised Guinea Pig; type: in vivo, guinea pig (Dunkin-Hartley); conditions: Cavia porcellus, po, 1 h; p.o.; PAF 100 ngkg^-1 i.v. bolus one hour after dosing; read-out: ED50 (PAF induced bronchoconstriction)
Description: PAF Induced Bronoconstriction in the Anaesthetised Guinea Pig
as §1, with “or vehicle,” for “or vehicle by oral gavage,”, “(Harvard, UK)” for “(Harvard, UK).”, “tidal” for “tidal volume”
A jugular vein was cannulated for the administration of a bolus dose of propranolol and for the later administration of bolus PAF. A carotid artery was cannulated for the measurement of arterial blood pressure via a physiological pressure transducer (type P23XL, Spectramed USA). Blood pressure and tracheal inflation pressure were recorded on a thermal array chart recorder (type TA4000, Gould Electronics UK).
Propranolol (1 mgkg^-1 i.v. & 3 mgkg^-1 s.c. Sigma Chemical Co. UK) was administered 10 minutes before PAF in order to prevent the bronchodilatory activity of catecholamines which may be released in response to PAF administration. PAF (100 ngkg^-1 i.v. bolus) was administered at the one hour time point following oral administration of the test compound or vehicle.
Changes in tracheal inflation pressure and blood pressure of drug treated animals were compared with changes from vehicle treated animals and percentage inhibition determined. One dose of test compound was investigated per animal.

T1 sequence (P35367 whole entry): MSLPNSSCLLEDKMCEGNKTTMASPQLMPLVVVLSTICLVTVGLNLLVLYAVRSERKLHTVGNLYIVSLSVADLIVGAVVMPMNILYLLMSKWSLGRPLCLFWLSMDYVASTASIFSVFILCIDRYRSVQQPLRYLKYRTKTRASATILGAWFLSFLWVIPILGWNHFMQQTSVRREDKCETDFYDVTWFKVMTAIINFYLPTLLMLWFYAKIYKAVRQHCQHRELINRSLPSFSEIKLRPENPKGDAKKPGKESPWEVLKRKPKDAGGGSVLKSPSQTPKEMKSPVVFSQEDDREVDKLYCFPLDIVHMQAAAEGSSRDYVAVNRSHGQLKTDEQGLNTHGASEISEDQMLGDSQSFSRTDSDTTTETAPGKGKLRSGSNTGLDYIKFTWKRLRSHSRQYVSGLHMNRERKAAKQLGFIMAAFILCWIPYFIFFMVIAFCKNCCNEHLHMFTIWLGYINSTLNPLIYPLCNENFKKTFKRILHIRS

Compound `Cc1ccc(/C(=C\CN2CCCC2)c2cccc(/C=C/CN(C)C(=O)c3ccc(Cn4c(C)nc5cnccc54)cc3)n2)cc1` [Example 3, N-Methyl-4-(1H-2-methylimidazo[4,5-c]pyridin-1-ylmethyl)-N-{3-[6-(3-pyrrolidin-1-yl-1-{4-tolyl}-prop-1E-enyl)-pyridin-2-yl]-prop-2E-enyl}-benzamide] has an ED50 [1] of 0.4 mg/kg, an activity at 1 µM [2] of 19% and an IC50 [3] of 1480 nM. For the same compound, the ED50 [4] was 5.8 mg/kg.
With `Cc1ccc(/C(=C\CN2CCCC2)c2cccc(/C=C/CN(C(=O)c3ccc(Cn4c(C)nc5cnccc54)cc3)C3CCCCC3)n2)cc1` [Example 4, N-Cyclohexyl-4-(1H-2-methylimidazo[4,5-c]pyridin-1-ylmethyl)-N-{3-[6-(3-pyrrolidin-1-yl-1-{4-tolyl}-prop-1E-enyl)-pyridin-2-yl]-prop-2E-enyl}-benzamide] the ED50 [1] was 0.85 mg/kg, the activity at 1 µM [2] was 42% and the IC50 [3] was 167 nM. For the same compound, the ED50 [4] was 1.55 mg/kg.
With `CCN(C/C=C/c1cccc(/C(=C/CN2CCCC2)c2ccc(C)cc2)n1)C(=O)c1ccc(Cn2c(C)nc3cnccc32)cc1` [Example 13, N-Ethyl-4-(1H-2-methylimidazo[4,5-c]pyridin-1-ylmethyl)-N-{3-[6-(3-pyrrolidin-1-yl1-{4-tolyl}-prop-1E-enyl)-pyridin-2-yl]-prop-2E-enyl}-benzamide] the ED50 [1] was 1 mg/kg, the activity at 1 µM [2] was 30% and the IC50 [3] was 238 nM. For the same compound, the ED50 [4] was 2.55 mg/kg.
In the case of `CCCN(C/C=C/c1cccc(/C(=C/CN2CCCC2)c2ccc(C)cc2)n1)C(=O)c1ccc(Cn2c(C)nc3cnccc32)cc1` [Example 16, N-Propyl-4-(1H-2-methylimidazo[4,5-c]pyridin-1-ylmethyl)-N-{3-[6-(3-pyrrolidin-1-yl-1-{4-tolyl}-prop-1E-enyl)-pyridin-2-yl]-prop-2E-enyl}-benzamide], the “% inhibition (histamine induced bronchoconstriction)” value ([1]; 10 mg/kg, histamine infusion one hour after dosing) is reported as 46%, the activity at 1 µM [2] is reported as 30% and the IC50 [3] is reported as 130 nM. It also gave an ED50 [4] of 1.55 mg/kg.
`Cc1nc2cnccc2n1Cc1ccc(C(=O)N(C/C=C/c2cccc(/C(=C/CN3CCCC3)c3ccc(Cl)cc3)n2)C2CCCCC2)cc1` [Example 20, N-Cyclohexyl-4-(1H-2-methylimidazo[4,5-c]pyridin-1-ylmethyl)-N-{3-[6-(3-pyrrolidin-1-yl-1-{4-chlorophenyl}-prop-1E-enyl)-pyridin-2-yl]-prop-2E-enyl}-benzamide] was tested, and the ED50 [1] was 1 mg/kg and the ED50 [4] was 4.2 mg/kg.

Reference: US5866588A, “Imidazopyridine derivatives” (British Biotech Pharmaceuticals Ltd., priority 1995, dated 1999)
